Data as given in publication PMC3161871, “Heteroarylketones inhibit astroglial interleukin-6 expression via a STAT3/NF-κB signaling pathway” (Journal of Neuroinflammation, 2011).
pKi: −log10 of the molar value.

Assays:
[1] = tested on: OSM-stimulated IL-6 secretion from U343 cells; assay: OSM-induced IL-6 release from U343 glioma cells (IL-6 ELISA of conditioned medium); format: cell-based, human; conditions: for Remaining IL-6 expression [% of control]: 100 ng/ml OSM, 24 h, IL-6 release of vehicle-treated cells set to 100% (n = 2), mean ± SD; for Effect on OSM-induced IL-6 secretion (in words): OSM-stimulated
Protocol: The human glioma cell line U343 [34] was maintained in DMEM containing 10% fetal bovine serum and 60 μg/ml gentamycin (Invitrogen, Darmstadt, Germany) at 37°C in a 10% CO2 atmosphere.
(§1) Measurements of IL-6 in conditioned medium and murine plasma samples were done by means of human- or murine-specific IL-6 Cytoset kits (Invitrogen, Darmstadt, Germany) according to manufacturer's protocols.
Using the characterized cell culture model of OSM-induced IL-6 expression, our in-house compound libraries were screened for potent IL-6 expression inhibitors. Human U343 glioma cells were treated with 100 ng/ml OSM for 24 h. The analysis by IL-6 ELISA identified a set of structurally related compounds as potent inhibitors of IL-6 secretion (Table 1). […] HAKs with proline in position P1 are known from the literature as inhibitors of prolyl endopeptidase (PREP), a proline-specific serine protease.

[2] = biological target: T1, human recombinant prolyl endopeptidase (PREP) (Homo sapiens, UniProt P48147); assay: PREP enzymatic activity assay (Z-Gly-Pro-pNA, photometric); format: biochemical; conditions: for pKi: recombinant PREP, Z-Gly-Pro-pNA 62.5/125/250 μM, pH 7.6, 30°C, competitive fit
T1 construct: made in house
T1 sequence (P48147 1-710): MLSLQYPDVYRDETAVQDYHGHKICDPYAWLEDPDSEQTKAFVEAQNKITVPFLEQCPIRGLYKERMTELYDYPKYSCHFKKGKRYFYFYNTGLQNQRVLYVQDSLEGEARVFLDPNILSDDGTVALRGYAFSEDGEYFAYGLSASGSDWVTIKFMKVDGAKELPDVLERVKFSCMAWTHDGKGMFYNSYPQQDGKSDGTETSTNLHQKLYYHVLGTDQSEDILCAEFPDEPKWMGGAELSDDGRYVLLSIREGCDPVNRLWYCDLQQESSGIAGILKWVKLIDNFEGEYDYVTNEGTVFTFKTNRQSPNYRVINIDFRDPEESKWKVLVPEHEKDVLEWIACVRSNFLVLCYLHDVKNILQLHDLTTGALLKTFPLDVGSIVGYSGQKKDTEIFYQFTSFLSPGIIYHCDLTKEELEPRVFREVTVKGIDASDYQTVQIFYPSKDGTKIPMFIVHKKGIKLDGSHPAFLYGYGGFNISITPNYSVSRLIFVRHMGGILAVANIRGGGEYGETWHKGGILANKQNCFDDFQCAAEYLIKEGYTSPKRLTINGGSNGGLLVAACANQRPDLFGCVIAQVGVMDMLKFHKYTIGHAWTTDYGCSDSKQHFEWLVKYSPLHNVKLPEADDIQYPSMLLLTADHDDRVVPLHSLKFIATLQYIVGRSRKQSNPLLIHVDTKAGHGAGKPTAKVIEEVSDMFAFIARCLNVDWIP
Protocol: The activity of human recombinant prolyl endopeptidase (PREP) was determined photometrically using the substrate Z-Gly-Pro-pNA (Bachem, Weil am Rhein, Germany) usually at a concentration of 150 μM. As assay buffer 50 mM HEPES buffer pH 7.6, containing 200 mM NaCl, 1 mM EDTA, and 1 mM dithiothreitol was used. Release of pNA was monitored continuously at 405 nm for 15 min at 30°C in a 96-well plate reader (Spectrafluor, Tecan, Crailsheim, Germany). PREP activity was calculated from the slope of the time product curve with the help of a pNA standard. For determination of Ki values three different substrate concentrations (62.5 μM; 125 μM and 250 μM) and seven different inhibitor concentrations were analyzed. Substrate concentrations were selected to be at the Km value of Z-Gly-Pro-pNA (125 μM) as well as half and twice the Km. Data were fitted by non-linear regression to the competitive inhibitor equation (Graphit 5.0, Erithacus software).

[3] = tested on: LPS-induced IL-6 release in primary mouse astrocytes; assay: LPS-induced IL-6 release in primary mouse astrocytes (ELISA); format: cell-based; conditions: 1 μg/ml LPS, 20 μM compound, 24 h
Protocol: (§2) According to Löffler, astrocyte-rich primary cell cultures were started with brains of newborn mice and rats and were maintained in Dulbecco's modified Eagle's medium (DMEM) for 33 days at 37°C in a humified atmosphere with 95% air/5% CO2.
as §1
(§3) Figure 5 Suppression of LPS-induced IL-6 release in primary murine astrocytes by selected HAK compounds. […] Astrocytes derived from newborn mice and rats were cultivated for 33 days followed by stimulation with 1 μg/ml LPS and treatment with compounds HAK-2 and HAK-5 (20 μM). After 24 hours conditioned media were analyzed with IL-6 specific ELISA. Data (mean ± SD) were obtained from experiments carried out in quadruplicate and statistical analysis was performed using the paired t test. Amount of IL-6 in LPS-treated control sample was set to 100%. ns, not significant; **p < 0.01; ***p < 0.001.
(§4) Primary murine astrocytes stimulated with 1 μg/ml LPS were co-treated with compounds HAK-2 and HAK-5 at a concentration of 20 μM each for 24 h. The observed effect of compounds HAK-2 and HAK-5 on LPS stimulation was similar to that of OSM-induced IL-6 expression in human U343 glioma cells (Figures 5A and 5B). […]

[4] = tested on: LPS-induced IL-6 release in primary rat astrocytes; assay: LPS-induced IL-6 release in primary rat astrocytes (ELISA); format: cell-based; conditions: 1 μg/ml LPS, 20 μM compound, 24 h
Protocol: as §2, §1, §3, §4

[5] = tested on: OSM-induced IL-6 mRNA expression; design: method as in PMID 10899931; conditions: cited from earlier work
[6] = tested on: STAT3 phosphorylation at serine 727 (pSTAT3^S727) in U343 cells; assay: OSM-induced STAT3 / Erk1 phosphorylation in U343 cells (western blot, immunocytochemistry); format: cell-based, human; conditions: OSM 100 ng/ml, 20 μM compound, 6 h
Protocol: Human U343 cells were lysed with cell lysis buffer (Invitrogen, Darmstadt, Germany) supplemented with 0.2 mg/ml sodium orthovanadate (Sigma, Taufkirchen, Germany), protease inhibitor mix complete mini (Roche, Mannheim, Germany) and 1 mM AEBSF (Sigma, Taufkirchen, Germany) for 30 min on ice. Lysates were centrifuged for 15 min at 15,000 × g and 4°C. Protein content in supernatants was quantified by Bradford assay (Sigma, Taufkirchen, Germany) according to the manufacturer's protocol and stored at -20°C.
Western blotting was performed with 30 μg protein of whole-cell extracts, mixed with 4 x SDS sample loading buffer (Invitrogen, Darmstadt, Germany) and denatured for 10 min at 85°C. […]
Human U343 cells (1 × 10^5 cells/well) were grown on cover slips in 24-well plates (Greiner, Frickenhausen, Germany) for 24 h. […] Finally, cover slips were mounted on microscope slides and approximately 250 cells/sample were evaluated densitometrically by fluorescence microscopy (Zeiss, Jena, Germany) and MetaMorph Image Analysis Software (Universal Imaging Corporation, USA). […]
Figure 7 Effect of selected HAK compounds on OSM-induced STAT3 phosphorylation at serine 727 in U343 cells. […] For western blot analysis (A) 0.25 × 10^6 cells co-treated for 6 h with OSM (100 ng/ml) and selected HAK compounds (20 μM) were extracted and analyzed as described in experimental procedures. […]

Structure (SMILES)	Remaining IL-6 expression [% of control] [1]	Effect on OSM-induced IL-6 secretion (in words) [1]	PREP inhibition (in words) [2]	pKi [2]	Reduction of LPS-induced IL-6 expression [3]	Reduction of LPS-induced IL-6 expression [4]	Effect on first OSM-induced IL-6 mRNA peak [5]	Effect on second OSM-induced IL-6 expression peak [5]	Effect on pSTAT3^S727 phosphorylation (western blot) [6]	Suppression of OSM-mediated phosphorylation of pSTAT3^S727 (immunocytochemistry, densitometry) [6]
CC(C)C[C@H](NC(=O)[C@H](Cc1ccccc1)NC(=O)OCc1ccccc1)C(=O)c1nc2ccccc2s1 [HAK-3, Z-Phe-Leu-BTh]	22.1 ±5.91 % of control	significantly reduced	poor PREP inhibitors	< 6.00						
O=C(N[C@@H](Cc1ccccc1)C(=O)N1CCC[C@H]1C(=O)c1nccs1)OCc1ccccc1 [HAK-5, Z-Phe-Pro-Th]	35.2 ± 12.92 % of control	significantly reduced		9.96	60%	50%				
C[C@H](NC(=O)[C@H](Cc1ccccc1)NC(=O)OCc1ccccc1)C(=O)c1nc2ccccc2s1 [HAK-4, Z-Phe-Ala-BTh]	35.1 ± 6.75 % of control	significantly reduced	poor PREP inhibitors	< 5.00						
NCCCC[C@H](NC(=O)OCc1ccccc1)C(=O)N1CCC[C@H]1C(=O)c1nc2ccccc2s1 [HAK-6, Z-Lys-Pro-BTh]	38.8 ± 5.26 % of control	significantly reduced		8.39						
COc1ccc(C[C@H](N)C(=O)N[C@H]2[C@@H](O)[C@H](n3cnc4c(N(C)C)ncnc43)O[C@@H]2CO)cc1 [puromycin]							no effect	completely abrogated		
N=C(N)NCCC[C@H](NC(=O)OCc1ccccc1)C(=O)N1CCC[C@H]1C(=O)c1nc2ccccc2s1 [HAK-8, Z-Arg-Pro-BTh]	96.8 ± 10.69 % of control	does not reduce	potent PREP inhibitor	8.49					significantly lower effect	did not
O=C(NC(Cc1ccccc1)C(=O)NC(Cc1ccccc1)C(=O)c1nc2ccccc2s1)OCc1ccccc1 (stereo not drawn) [HAK-9, Z-Phe-Phe-BTh]	182.8 ± 25.41 % of control			< 5.00						
O=C(O)C[C@H](NC(=O)OCc1ccccc1)C(=O)N1CCC[C@H]1C(=O)c1nc2ccccc2s1 [HAK-7, Z-Asp-Pro-BTh]	52.8 ± 3.91 % of control	significantly reduced		7.92						
O=C(N[C@@H](Cc1ccccc1)C(=O)N1CCC[C@H]1C(=O)c1nc2ccccc2s1)OCc1ccccc1 [HAK-1, Z-Phe-Pro-BTh]	15.9 ± 1.87 % of control	significantly reduced		8.34						
